The MIC is the lowest concentration that inhibits growth of the organism. By MBC is commonly meant the lowest tested concentration that kills the bacteria rather than only halting them.

One test deals with E. faecalis ATCC 29212. Nature of the test: Antibacterial activity: MIC/MBC determination and disc-diffusion. It is filed as cell-based. As to conditions: Enterococcus faecalis, ATCC29212; E. faecalis ATCC 29212; read-out: MIC. Here is the method: (§1) Direct antimicrobial activity was determined against the following standard strains: (1) Gram-positive cocci: methicillin-sensitive Staphylococcus aureus ATCC 6538P (MSSA), methicillin-resistant S. aureus subsp. aureus ATCC 43300 (MRSA), S. epidermidis ATCC 12228, Enterococcus faecium ATCC 6057, E. faecalis ATCC 29212, Bacillus subtilis ATCC 6633; (2) Gram-negative bacteria from Enterobacteriales order: Klebsiella pneumoniae ATCC 13883, Escherichia coli ATCC 25922, Enterobacter cloacae DSM 6234, Proteus mirabilis ATCC 12453, Serratia marcescens ATCC 13880; (3) Gram-negative non-fermentative rods: Acinetobacter baumannii ATCC 19606, Pseudomonas aeruginosa ATCC 27853, Stenotrophomonas maltophilia ATCC 12714, S. maltophilia ATCC 13637, Burkholderia cepacia ATCC 25416, Bordetella bronchiseptica ATCC 4617; (4) yeasts: Candida albicans ATCC 90028, C. krusei ATCC 6258, C. parapsilosis ATCC 22019, C. tropicalis (Castellani) Berkhout ATCC 750, C. tropicalis IBA 171, C. guilliermondii IBA 155, and Saccharomyces cerevisiae ATCC 9763. Moreover, 5 clinical strains of methicillin-resistant S. aureus were also included: NMI 664 K, NMI 1576 K, NMI 1712 K, NMI 1991 K, and NMI 2541 K. All strains were stored at −80 °C. Prior to testing, each bacterial strain was subcultured twice on tryptic soy agar TSA (bioMerieux) medium and yeast strains on Sabouraud dextrose agar (bioMerieux) for 24–48 h at 30 °C to ensure viability. The antimicrobial activity was evaluated as previously described[26] by the disc-diffusion method and the MIC determination assays according to the EUCAST (ref. [71] and [72]) and CLSI (ref. [53] and [73]) recommendations. Assessment of bactericidal (MBC) and fungicidal (MFC) activities was performed according to the CLSI recommendations.[54,74] The following reference agents were used: fluconazole (in the case of fungi), linezolid (for Gram-positive bacteria), and nitrofurantoin (for Gram-negative rods). The new benzosiloxaboroles were dissolved in DMSO (Sigma).

The next test concerns E. faecium ATCC 6057. The test is described as above. It is filed as cell-based. As to conditions: Enterococcus faecium, ATCC6057; E. faecium ATCC 6057; read-out: MIC. How it is done:
as §1

Test [1] concerns S. aureus ATCC 43300 MRSA. Described as above. It is filed as cell-based. As to conditions: Staphylococcus aureus, S. aureus ATCC 43300 MRSA; for MIC: read-out: MIC; for MBC: read-out: MBC (first MBC where Eagle effect). How it is done: as §1
The test system of test [2] is S. epidermidis ATCC 12228. The description is as above. It is filed as cell-based. Particulars: Staphylococcus epidermidis, ATCC12228, S. epidermidis ATCC 12228; for MIC: read-out: MIC. How it is done:
as §1

A further test deals with E. coli ATCC 25922. As to the kind of experiment: Antibacterial activity: MIC/MBC, MIC with PAβN, disc-diffusion. Format: cell-based, Escherichia coli. As to conditions: E. coli ATCC 25922; for MIC: Escherichia coli, ATCC25922, read-out: MIC. How it is done: as §1, with “The following reference agents were used: fluconazole (in the case of fungi), linezolid (for Gram-positive bacteria), and nitrofurantoin (for Gram-negative rods).” left out
(§2) Considering that the MDR efflux pumps often contribute to Gram-negative rod resistance, the MIC values of studied agents, with or without the pump inhibitor, PAβN (20 μg mL^−1) (Sigma), were determined.[75] The MIC was determined using Mueller–Hinton II broth medium (MHB) (Becton Dickinson) by the broth microdilution method, according to the CLSI guideliness.[53] To minimize the influence of PAβN on the destabilization of bacterial cell covers, the tests were conducted in the presence of 1 mM MgSO4 (Sigma).[76] At least a 4-fold reduction in the MIC value after the addition of PAβN was considered significant.[56,77]

In a further test the test system is P. mirabilis ATCC 12453. The test is described as above. Format: cell-based, Proteus mirabilis. Particulars: Proteus mirabilis, ATCC12453; P. mirabilis ATCC 12453; read-out: MIC. Here is the method:
as §1, with “The following reference agents were used: fluconazole (in the case of fungi), linezolid (for Gram-positive bacteria), and nitrofurantoin (for Gram-negative rods).” left out
as §2

The test system of the next test is S. marcescens ATCC 13880. The description is as above. Particulars: Serratia marcescens, ATCC13880; S. marcescens ATCC 13880; read-out: MIC. Format: cell-based, Serratia marcescens. Here is the method:
as §1, with “The following reference agents were used: fluconazole (in the case of fungi), linezolid (for Gram-positive bacteria), and nitrofurantoin (for Gram-negative rods).” left out
as §2

Another test has as its system A. baumannii ATCC 19606. The description is as above. It is filed as cell-based, Acinetobacter baumannii. Particulars: Acinetobacter baumannii, ATCC19606; A. baumannii ATCC 19606; read-out: MIC. Here is the method: as §1, with “The following reference agents were used: fluconazole (in the case of fungi), linezolid (for Gram-positive bacteria), and nitrofurantoin (for Gram-negative rods).” left out
as §2

Test [3] deals with B. bronchiseptica ATCC 4617. As to the kind of experiment: Antibacterial activity: MIC/MBC, disc-diffusion. It is filed as cell-based, Bordetella bronchiseptica. As to conditions: Bordetella bronchiseptica, ATCC4617; B. bronchiseptica ATCC 4617; read-out: MIC. How it is done:
as §1, with “The following reference agents were used: fluconazole (in the case of fungi), linezolid (for Gram-positive bacteria), and nitrofurantoin (for Gram-negative rods).” left out
as §2

For another test, the system named is C. krusei ATCC 6258. As to the kind of experiment: Antifungal activity: MIC/MFC, disc-diffusion. It is filed as cell-based. As to conditions: Pichia kudriavzevii, ATCC6258; read-out: MIC. How it is done: as §1, with “The following reference agents were used: fluconazole (in the case of fungi), linezolid (for Gram-positive bacteria), and nitrofurantoin (for Gram-negative rods).” left out
(In agar diffusion tests the substance spreads into inoculated agar from a disc or well.)

Structures are written as SMILES. In brackets after ≈: the same amount, converted by molar mass.

Consider `C[Si]1(C)OB(O)c2cc(F)c(SCCC(N)=O)c(F)c21` [Compound 7, 3-((5,7-Difluoro-3-hydroxy-1,1-dimethyl-1,3-dihydrobenzo[c][1,2,5]oxasilaborol-6-yl)thio)propanamide], for which the MIC is 400 µg/mL (≈ 1260 µM) with E. faecalis ATCC 29212; 200 µg/mL (≈ 631 µM) in the test with E. faecium ATCC 6057; 100 µg/mL (≈ 315 µM) in test [1]; 100 µg/mL (≈ 315 µM) in test [2]; greater than 400 µg/mL with E. coli ATCC 25922; greater than 400 µg/mL in the test on P. mirabilis ATCC 12453. Also, the MIC (with S. marcescens ATCC 13880; with A. baumannii ATCC 19606; in [3]; in the test on C. krusei ATCC 6258) was greater than 400 µg/mL in each case. Besides, in the test on E. coli ATCC 25922 (PAβN 20 μg mL^−1, MHB + 1 mM MgSO4), the “-fold reduction of MIC in the presence of PAβN” value is listed as 4 -fold.
For `C[Si]1(C)OB(O)c2cc(F)c(SCCC(=O)N3CCOCC3)c(F)c21` [Compound 8, 3-((5,7-Difluoro-3-hydroxy-1,1-dimethyl-1,3-dihydrobenzo[c][1,2,5]oxasilaborol-6-yl)thio)-1-morpholinopropan-1-one], the MIC in the test with E. faecalis ATCC 29212 was 400 µg/mL (≈ 1030 µM); in the test on E. faecium ATCC 6057 it was 200 µg/mL (≈ 516 µM); in test [1] it was 50 µg/mL (≈ 129 µM); in test [2] it was 100 µg/mL (≈ 258 µM); with E. coli ATCC 25922, greater than 400 µg/mL; in the test on P. mirabilis ATCC 12453, greater than 400 µg/mL. In addition, the MIC (in the test on S. marcescens ATCC 13880; in the test with A. baumannii ATCC 19606; in test [3]; with C. krusei ATCC 6258) was greater than 400 µg/mL throughout.
`C[Si]1(C)OB(O)c2cc(F)c(SCCC(=O)Nc3ncccn3)c(F)c21` [Compound 9, 3-((5,7-Difluoro-3-hydroxy-1,1-dimethyl-1,3-dihydrobenzo[c][1,2,5]oxasilaborol-6-yl)thio)-N-(pyrimidin-2-yl)propanamide]: the MIC with E. faecalis ATCC 29212 is 200 µg/mL (≈ 506 µM); in the test on E. faecium ATCC 6057, 200 µg/mL (≈ 506 µM); in [1], 50 µg/mL (≈ 126 µM); in test [2], 50 µg/mL (≈ 126 µM); in the test with E. coli ATCC 25922, greater than 400 µg/mL; in the test on P. mirabilis ATCC 12453, greater than 400 µg/mL. Further, the MIC (in the test on S. marcescens ATCC 13880; in the test with A. baumannii ATCC 19606; in test [3]; in the test on C. krusei ATCC 6258) was greater than 400 µg/mL throughout. For the same molecule, the MBC in test [1] and in [2] was 400 µg/mL (≈ 1010 µM) each time.
Take `C[Si]1(C)OB(O)c2cc(F)c(SCCC(=O)Nc3cnccn3)c(F)c21` [Compound 10, 3-((5,7-Difluoro-3-hydroxy-1,1-dimethyl-1,3-dihydrobenzo[c][1,2,5]oxasilaborol-6-yl)thio)-N-(pyrazin-2-yl)propanamide]: the MIC in the test on E. faecalis ATCC 29212 is 200 µg/mL (≈ 506 µM); in the test on E. faecium ATCC 6057 it was 100 µg/mL (≈ 253 µM); in test [1] it was 50 µg/mL (≈ 126 µM); in test [2] it was 50 µg/mL (≈ 126 µM); with E. coli ATCC 25922, greater than 400 µg/mL; in the test with P. mirabilis ATCC 12453, greater than 400 µg/mL. Further, the MIC (with S. marcescens ATCC 13880; with A. baumannii ATCC 19606; in test [3]; in the test with C. krusei ATCC 6258) was greater than 400 µg/mL each time. Also, the MBC in test [1] and in test [2] was 400 µg/mL (≈ 1010 µM) each time.
For the molecule `Cc1cc(NC(=O)CCSc2c(F)cc3c(c2F)[Si](C)(C)OB3O)no1` [Compound 11, 3-((5,7-Difluoro-3-hydroxy-1,1-dimethyl-1,3-dihydrobenzo[c][1,2,5]oxasilaborol-6-yl)thio)-N-(5-methylisoxazol-3-yl)propanamide], the MIC in the test with E. faecalis ATCC 29212 is 200 µg/mL (≈ 502 µM); with E. faecium ATCC 6057, 200 µg/mL (≈ 502 µM); in test [1], 50 µg/mL (≈ 126 µM); in test [2] it was 25 µg/mL (≈ 62.8 µM); with E. coli ATCC 25922, greater than 400 µg/mL; in the test with P. mirabilis ATCC 12453, greater than 400 µg/mL. Further, the MIC (in the test on S. marcescens ATCC 13880; with A. baumannii ATCC 19606; in [3]; in the test on C. krusei ATCC 6258) was greater than 400 µg/mL throughout. Moreover, the MBC in test [1] and in test [2] was 400 µg/mL (≈ 1000 µM) in each case.

(Values after article PMC11110727, “Exploiting thiol-functionalized benzosiloxaboroles for achieving diverse substitution patterns – synthesis, characterization and biological evaluation of promising antibacterial agents” (RSC Medicinal Chemistry, 2024).)
